In patent US9302996B2, “Continuous arycyclic compound” (MITSUBISHI TANABE PHARMA CORPORATION, priority 2010, dated 2016):

Key:
C57BL/6J mice = experiment: Antifeeding activity (high fat diet intake up to 4 hours); type: in vivo; conditions: Mus musculus, male C57BL/6J mice, 5 mg/kg oral, food ingested up to 4 hours, read-out: Antifeeding rate (5 mg/kg)
Procedure: 7 to 10 weeks-old male C57BL/6J mice were fasted overnight, and the test compound suspended in 0.2% carboxymethylcellulose solution was orally administered. Immediately after the administration, high fat diet (Oriental Yeast Co., Ltd, 60 cal % fat) was provided and freely fed. An amount of food ingested up to 4 hours was measured, and a lowering rate (an antifeeding rate) of the amount of food ingested in the Test compound administered group was calculated as compared to that of the solvent control group as a control.

ICR mice = experiment: Triglyceride (TG) in blood plasma increase-inhibiting action due to lipid administration; type: in vivo; conditions: Mus musculus; male ICR mice, 5 mg/kg oral, lipid (Intralipos 20%) after 30 minutes, plasma TG 2 hours after lipid; read-out: Inhibiting rate of TG-increase in blood plasma (5 mg/kg)
Procedure: 6 to 9 weeks-old male ICR mice were fasted overnight, and Test compound suspended in 0.2% carboxymethyl cellulose solution was orally administered to the mice. A lipid (Intralipos 20%, OTSUKA PHARMACEUTICAL CO., LTD., 10 mL/kg) was orally administered after 30 minutes. Blood was collected from tail vein immediately before the lipid administration, and after 2 hours from the same to obtain blood plasma. Measurement of TG in blood plasma was carried out by using a triglyceride E Test Wako (Wako Pure Chemical Industries, Ltd.), and an increased value of TG in blood plasma by administration of the lipid was calculated. An increased value of TG in blood plasma in a solvent control group was used as a control, and an inhibiting rate in increase of TG in blood plasma in the Test compound administered group was calculated.

Row | Compound | inhibition in vivo at 5 mg/kg (C57BL/6J mice) [%] | inhibition in vivo at 5 mg/kg (ICR mice) [%]
1 | CC(C)(COc1ccc(-c2ccc(-c3ncc(CCC4CC4)[nH]3)cn2)cc1)C(=O)O [Example 30] | 68 | 60
2 | CC(C)(COc1ccc(-c2ccc(-c3ncc(C4CCCCCC4)[nH]3)cn2)cc1)C(=O)O [Example 31] | 65 | 86
3 | CCCc1cnc(-c2ccc(-c3ccc(OCC(C)(C)C(=O)O)cc3)nc2)[nH]1 [Example 32] | 42 | 71
4 | Cc1cc(-c2ccc(OCC(C)(C)C(=O)O)cc2)ncc1-c1ncc(C2(C(F)(F)F)CC2)[nH]1 [Example 35-3), 2,2-dimethyl-3-[4-(4-methyl-5-{5-[1-(trifluoromethyl)cyclopropyl]-1H-imidazol-2-yl}pyridin-2-yl)phenoxy]-propanoic acid] | 56 | 54
5 | Cc1cc(OCC(C)(C)C(=O)O)ncc1-c1ccc(-c2ncc(C(C)(C)C(F)(F)F)[nH]2)nc1 [Example 47] | 44 | 72
6 | CC(C)(COc1cnc(-c2ccc(-c3ncc(C4(C(F)(F)F)CC4)[nH]3)cc2)cn1)C(=O)O [Example 49] | 58 | 48
7 | CC(C)(COc1ccc(-c2ccc(-c3ncc(C4CCCCC4)[nH]3)cn2)cc1)C(=O)O [Example 56] | 76 | 61
8 | CCc1cnc(-c2ccc(-c3ccc(OCC(C)(C)C(=O)O)cc3)nc2)[nH]1 [Example 58-2), 3-[4-[5-(5-ethyl-1H-imidazol-2-yl)-2-pyridyl]phenoxy]-2,2-dimethylpropanoic acid] | 65 | 64
9 | CC(C)Cc1cnc(-c2ccc(-c3ccc(OCC(C)(C)C(=O)O)nc3)nc2)[nH]1 [Example 59] | 50 | 74
10 | O=C(O)C1(COc2ccc(-c3ccc(-c4ncc(C(F)(F)F)[nH]4)cn3)cc2)CC1 [Example 60-3), 1-[[4-[5-[5-(trifluoromethyl)-1H-imidazol-2-yl]-2-pyridyl]phenoxy]methyl]cyclopropanecarboxylic acid] | 59 | 48
11 | CC(C)(COc1ccc(-c2ccc(-c3ncc(C(F)(F)F)[nH]3)cn2)c(F)c1)C(=O)O [Example 64] | 78 | 60
12 | CC(C)(COc1ccc(-c2ccc(-c3ncc(C(F)(F)F)[nH]3)cn2)cc1)CC(=O)O [Example 65] | 79 | 75
13 | CC(C)(COc1ncc(-c2ccc(-c3ncc(C(F)(F)F)[nH]3)cc2)cn1)C(=O)O [Example 67] | 58 | 70
14 | CC(C)(COc1ccc(-c2ccc(-c3ncc(C(F)(F)F)[nH]3)nc2)cc1)C(=O)O [Example 68] | 63 | 64
15 | Cc1cc(OCC2(C(=O)O)CC2)ccc1-c1ccc(-c2ncc(C(F)(F)F)[nH]2)cn1 [Example 71] | 29 | 50
16 | CC(C)(COc1ncc(-c2ccc(-c3ncc(C(F)(F)F)[nH]3)c(Cl)c2)cc1F)C(=O)O [Example 82] | 42 | 47
17 | CCc1cc(OCC(C)(C)C(=O)O)ccc1-c1ccc(-c2ncc(C(F)(F)F)[nH]2)cn1 [Example 85-4), 3-(3-ethyl-4-{5-[5-(trifluoromethyl)-1H-imidazol-2-yl]pyridin-2-yl}phenoxy)-2,2-dimethylpropanoic acid] | 70 | 69
18 | COc1cc(OCC(C)(C)C(=O)O)ccc1-c1ccc(-c2ncc(C(F)(F)F)[nH]2)cn1 [Example 86-3), 3-[3-methoxy-4-[5-[5-(trifluoromethyl)-1H-imidazol-2-yl]-2-pyridyl]phenoxy]-2,2-dimethylpropanoic acid] | 21 | 68
19 | CC(C)(COc1ccc(-c2ccc(-c3ncc(C4(C(F)(F)F)CCC4)[nH]3)cn2)cc1)C(=O)O [Example 88-3), sodium 2,2-dimethyl-3-[4-(5-{5-[1-(trifluoromethyl)cyclobutyl]-1H-imidazol-2-yl}pyridin-2-yl)phenoxy)propanoate] | 55 | 65
20 | CC(C)(COc1ncc(-c2ccc(-c3ncc(C(F)(F)F)[nH]3)cc2)cc1F)C(=O)O [Example 90] | 75 | 83

Row | Compound | inhibition in vivo at 5 mg/kg (C57BL/6J mice) [%] | inhibition in vivo at 5 mg/kg (ICR mice) [%]
21 | CC(C)(COc1cnc(-c2ccc(-c3ncc(C(F)(F)F)[nH]3)c(F)c2)cn1)C(=O)O [Example 91] | 51 | 51
22 | CC(C)(COc1ccc(-c2ccc(-c3nc(C(F)(F)F)c[nH]3)cc2)cc1)C(=O)O [Example 93-3), 3-({4′-[5-(trifluoromethyl)-1H-imidazol-2-yl]biphenyl-4-yl}oxy)-2,2-dimethylpropanoic acid] | 68 | 67
23 | Cc1cc(OCC2(C(=O)O)CCC2)ncc1-c1ccc(-c2ncc(C(F)(F)F)[nH]2)nc1 [Example 97-5), 1-[({4-methyl-6′-[5-(trifluoromethyl)-1H-imidazol-2-yl]-3,3′-bipyridin-6-yl}oxy)methyl]cyclobutanecarboxylic acid] | 92 | 102
24 | Cc1cc(OCC2(C(=O)O)CCC2)ncc1-c1ccc(-c2ncc(C(F)(F)F)[nH]2)c(F)c1 [Example 98-3), 1-{[(5-{3-fluoro-4-[5-(trifluoromethyl)-1H-imidazol-2-yl]phenyl}-4-methylpyridin-2-yl)oxy]methyl}cyclobutanecarboxylic acid] | 89 | 105
25 | Cc1cc(OCC2(C(=O)O)CCC2)ncc1-c1cnc(-c2ncc(C(F)(F)F)[nH]2)c(Cl)c1 [Example 99-6), 1-[({5′-chloro-4-methyl-6′-[5-(trifluoromethyl)-1H-imidazol-2-yl]-3,3′-bipyridin-6-yl}oxy)methyl]cyclobutanecarboxylic acid] | 85 | 95
26 | Cc1cc(OCC2(C(=O)O)CCC2)ncc1-c1ccc(-c2ncc(C(F)(F)F)[nH]2)c(Cl)c1 [Example 101-3), 1-{[(5-{3-chloro-4-[5-(trifluoromethyl)-1H-imidazol-2-yl]phenyl}-4-methylpyridin-2-yl)oxy]methyl}cyclobutanecarboxylic acid] | 57 | 71
27 | Cc1cc(OCC(C)(C)C(=O)O)ncc1-c1ccc(-c2ncc(CC(C)C)[nH]2)cc1 [Example 104] | 62 | 67
28 | Cc1cc(OCC(C)(C)C(=O)O)ncc1-c1ccc(-c2ncc(CC3CC3)[nH]2)cc1 [Example 108] | 62 | 52
29 | Cc1cc(OCC(C)(C)C(=O)O)ncc1-c1ccc(-c2ncc(CC3CC3)[nH]2)c(C)c1 [Example 109] | 41 | 50
30 | Cc1cc(OCC(C)(C)C(=O)O)ncc1-c1ccc(-c2ncc(C(C)(C)C(F)(F)F)[nH]2)c(F)c1 [Example 115] | 62 | 50
31 | Cc1cc(OCC(C)(C)C(=O)O)ncc1-c1ccc(-c2ncc(C(F)(F)C(F)(F)F)[nH]2)nc1 [Example 116] | 76 | 82
32 | Cc1cc(OCC(C)(C)C(=O)O)ncc1-c1ccc(-c2ncc(CC3CC3)[nH]2)nc1 [Example 118] | 61 | 64
33 | Cc1cc(OCC(C)(C)C(=O)O)ncc1-c1ccc(-c2ncc(CC3CC3)[nH]2)c(Cl)c1 [Example 121] | 57 | 53
34 | Cc1cc(OCC(C)(C)C(=O)O)ncc1-c1ccc(-c2ncc(C(F)(F)C(F)(F)F)[nH]2)c(F)c1 [Example 124] | 75 | 98
35 | Cc1cc(OCC2(C(=O)O)CC2)ncc1-c1ccc(-c2ncc(C(F)(F)F)[nH]2)nc1 [Example 132] | 47 | 65
36 | Cc1cc(OCC2(C(=O)O)CC2)ncc1-c1ccc(-c2ncc(C(F)(F)F)[nH]2)c(F)c1 [Example 133] | 83 | 75
37 | CCC(CC)(COc1cc(C)c(-c2ccc(-c3ncc(C(F)(F)F)[nH]3)c(F)c2)cn1)C(=O)O [Example 134] | 74 | 84
38 | Cc1cc(OCC2(C(=O)O)CC2)ncc1-c1cnc(-c2ncc(C(F)(F)F)[nH]2)c(F)c1 [Example 136] | 62 | 64
39 | Cc1cc(OCC2(C(=O)O)CCC2)ncc1-c1cnc(-c2ncc(C(F)(F)F)[nH]2)c(F)c1 [Example 137] | 83 | 81
40 | CCC(CC)(COc1cc(C)c(-c2ccc(-c3ncc(C(F)(F)F)[nH]3)c(Cl)c2)cn1)C(=O)O [Example 140] | 78 | 68
